From PMC7503713, “GANT61 Reduces Hedgehog Molecule (GLI1) Expression and Promotes Apoptosis in Metastatic Oral Squamous Cell Carcinoma Cells” (International Journal of Molecular Sciences, 2020)

Tested on: PTCH1 mRNA
Experiment: qPCR of HH pathway gene expression in HSC3 cells, PTCH1
Type: cell-based, human
Settings: HSC3, 36 µM, 12 h, not significant
Method: For total RNA isolation, HSC3 cells were plated on 6-well plates, at a density of 0.7 × 10^5 cells/mL (5 mL/well volume), and incubated overnight, followed by treatment with the GLI inhibitor for 12 h at both concentrations (18 and 36 µM).
All experiments were carried out under DNAse/RNAse-free conditions. Silica microcolumns were used for RNA extraction, using an RNeasy Plus Mini Kit (QIAGEN, Hilden, Germany). Extracted RNA was analyzed for quantity and purity, using a NanoDrop®® 1000 spectrophotometer (Thermo Fisher Scientific, Waltham, MA, USA).
Reverse transcription was performed by using Superscript VILO™ transcriptase enzyme (Invitrogen, Carlsbad, CA, USA). The cDNA samples were stored at −20 °C, until the time of use.
HH pathway component expression was evaluated in cells treated or not with GANT61 by qPCR, using TaqMan Gene Expression Assays^TM inventoried for the PTCH1 (Hs00181117_m1), GLI1 (Hs01110766_m1), GLI2 (Hs01119974_m1), and GLI3 (Hs00609233_m1) genes, as well as for B2 M (Hs99999907_m1). […]
Following amplification and dissociation runs, quantification cycle (Cq) values were obtained by using the ViiA7^TM System Operational Program (AppliedByosistems, Foster City, CA, USA). For relative quantification, the comparative method (2−∆∆Cq) described by Livak and Schmittgen, 2001 was used. […]

CN(C)c1ccccc1CN1CCCN(Cc2ccccc2N(C)C)C1c1ccncc1 [GANT61]
mRNA expression of PTCH1: Reductions in mRNA expression
